Laboratory results published in PubChem BioAssay (NCI).
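Method: 48-hour compound exposure of cells in 96-well plates, five concentrations, linear interpolation of endpoints. Here, GI50 denotes the concentration required for 50% inhibition of growth. TGI denotes the concentration required for complete inhibition of growth.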

Tests used:
Assay in all cases: NCI tumour cell line growth inhibition, 48 h
UO-31 renal = test system: UO-31 renal
SK-MEL-5 melanoma = test system: SK-MEL-5 melanoma
SW-620 colon = test system: SW-620 colon
MCF7 breast = test system: MCF7 breast
HS 578T breast = test system: HS 578T breast
SK-MEL-28 melanoma = test system: SK-MEL-28 melanoma
SK-MEL-2 melanoma = test system: SK-MEL-2 melanoma
OVCAR-4 ovarian = test system: OVCAR-4 ovarian
KM12 colon = test system: KM12 colon
HCT-15 colon = test system: HCT-15 colon
CAKI-1 renal = test system: CAKI-1 renal
TK-10 renal = test system: TK-10 renal
HCC-2998 colon = test system: HCC-2998 colon
CCRF-CEM leukemia = test system: CCRF-CEM leukemia
HOP-92 NSCLC = test system: HOP-92 NSCLC
NCI-H460 lung = test system: NCI-H460 lung
LOX IMVI melanoma = test system: LOX IMVI melanoma
MALME-3M melanoma = test system: MALME-3M melanoma
NCI-H23 lung = test system: NCI-H23 lung
OVCAR-3 ovarian = test system: OVCAR-3 ovarian
RPMI-8226 leukemia = test system: RPMI-8226 leukemia
NCI/ADR-RES ovarian = test system: NCI/ADR-RES ovarian
MOLT-4 leukemia = test system: MOLT-4 leukemia
UACC-257 melanoma = test system: UACC-257 melanoma
SK-OV-3 ovarian = test system: SK-OV-3 ovarian
HCT-116 colon = test system: HCT-116 colon
RXF 393 renal = test system: RXF 393 renal
NCI-H226 lung = test system: NCI-H226 lung
A498 renal = test system: A498 renal
NCI-H522 lung = test system: NCI-H522 lung
HOP-62 NSCLC = test system: HOP-62 NSCLC
PC-3 prostate = test system: PC-3 prostate
DU-145 prostate = test system: DU-145 prostate
HL-60(TB) leukemia = test system: HL-60(TB) leukemia
UACC-62 melanoma = test system: UACC-62 melanoma
T-47D breast = test system: T-47D breast
OVCAR-8 ovarian = test system: OVCAR-8 ovarian
K-562 leukemia = test system: K-562 leukemia
A549 NSCLC = test system: A549 NSCLC
HT29 colon = test system: HT29 colon
EKVX NSCLC = test system: EKVX NSCLC
SR leukemia = test system: SR leukemia
786-0 renal = test system: 786-0 renal
IGROV1 ovarian = test system: IGROV1 ovarian
ACHN renal = test system: ACHN renal
SF-295 CNS = test system: SF-295 CNS
U251 CNS = test system: U251 CNS
MDA-MB-231 breast = test system: MDA-MB-231 breast
SF-539 CNS = test system: SF-539 CNS
BT-549 breast = test system: BT-549 breast
SNB-19 CNS = test system: SNB-19 CNS

CN(C)c1ccc(/C=N/Nc2nc(N/N=C/c3ccc(N(C)C)cc3)nc(N3CCCCC3)n2)cc1
GI50 (UO-31 renal): 1.72 µM
TGI (UO-31 renal): 3.7 µM
GI50 (SK-MEL-5 melanoma): 1.73 µM
TGI (SK-MEL-5 melanoma): 3.15 µM
GI50 (SW-620 colon): 3.17 µM
TGI (SW-620 colon): > 100 µM
GI50 (MCF7 breast): 2.86 µM
TGI (MCF7 breast): > 100 µM
GI50 (HS 578T breast): 2.09 µM
TGI (HS 578T breast): 5.57 µM
GI50 (SK-MEL-28 melanoma): 2 µM
TGI (SK-MEL-28 melanoma): 4.35 µM
GI50 (SK-MEL-2 melanoma): 1.99 µM
TGI (SK-MEL-2 melanoma): 3.72 µM
GI50 (OVCAR-4 ovarian): 5.03 µM
TGI (OVCAR-4 ovarian): > 100 µM
GI50 (KM12 colon): 2.84 µM
TGI (KM12 colon): 8.49 µM
GI50 (HCT-15 colon): 1.87 µM
TGI (HCT-15 colon): 4.62 µM
GI50 (CAKI-1 renal): 2.08 µM
TGI (CAKI-1 renal): 5.02 µM
GI50 (TK-10 renal): 2.54 µM
TGI (TK-10 renal): 7.28 µM
GI50 (HCC-2998 colon): 2.4 µM
TGI (HCC-2998 colon): 6.67 µM
GI50 (CCRF-CEM leukemia): 1.21 µM
TGI (CCRF-CEM leukemia): > 100 µM
GI50 (HOP-92 NSCLC): 1.47 µM
TGI (HOP-92 NSCLC): 3.25 µM
GI50 (NCI-H460 lung): 3.21 µM
TGI (NCI-H460 lung): > 100 µM
GI50 (LOX IMVI melanoma): 1.61 µM
TGI (LOX IMVI melanoma): 3.19 µM
GI50 (MALME-3M melanoma): 1.86 µM
TGI (MALME-3M melanoma): 3.4 µM
GI50 (NCI-H23 lung): 3.49 µM
TGI (NCI-H23 lung): > 100 µM
GI50 (OVCAR-3 ovarian): 2.28 µM
TGI (OVCAR-3 ovarian): 5.03 µM
GI50 (RPMI-8226 leukemia): 1.92 µM
TGI (RPMI-8226 leukemia): 5.1 µM
GI50 (NCI/ADR-RES ovarian): 3.19 µM
TGI (NCI/ADR-RES ovarian): 17 µM
GI50 (MOLT-4 leukemia): 2.87 µM
TGI (MOLT-4 leukemia): > 100 µM
GI50 (UACC-257 melanoma): 1.83 µM
TGI (UACC-257 melanoma): 3.67 µM
GI50 (SK-OV-3 ovarian): 2.17 µM
TGI (SK-OV-3 ovarian): 4.88 µM
GI50 (HCT-116 colon): 1.64 µM
TGI (HCT-116 colon): 3.75 µM
GI50 (RXF 393 renal): 2.12 µM
TGI (RXF 393 renal): 6.12 µM
GI50 (NCI-H226 lung): 2.19 µM
TGI (NCI-H226 lung): 5.64 µM
GI50 (A498 renal): 1.58 µM
TGI (A498 renal): 3.51 µM
GI50 (NCI-H522 lung): 2.06 µM
TGI (NCI-H522 lung): 4.56 µM
GI50 (HOP-62 NSCLC): 2.19 µM
TGI (HOP-62 NSCLC): 5.05 µM
GI50 (PC-3 prostate): 2.57 µM
TGI (PC-3 prostate): 7.91 µM
GI50 (DU-145 prostate): 3.92 µM
TGI (DU-145 prostate): > 100 µM
GI50 (HL-60(TB) leukemia): 2.2 µM
TGI (HL-60(TB) leukemia): 6.71 µM
GI50 (UACC-62 melanoma): 1.84 µM
TGI (UACC-62 melanoma): 3.78 µM
GI50 (T-47D breast): 2.18 µM
TGI (T-47D breast): 5.54 µM
GI50 (OVCAR-8 ovarian): 3.21 µM
TGI (OVCAR-8 ovarian): > 100 µM
GI50 (K-562 leukemia): 0.895 µM
TGI (K-562 leukemia): > 100 µM
GI50 (A549 NSCLC): 2.99 µM
TGI (A549 NSCLC): > 100 µM
GI50 (HT29 colon): 1.76 µM
TGI (HT29 colon): 3.36 µM
GI50 (EKVX NSCLC): 3.13 µM
TGI (EKVX NSCLC): > 100 µM
GI50 (SR leukemia): 0.369 µM
TGI (SR leukemia): > 100 µM
GI50 (786-0 renal): 1.7 µM
TGI (786-0 renal): 3.62 µM
GI50 (IGROV1 ovarian): 2.96 µM
TGI (IGROV1 ovarian): > 100 µM
GI50 (ACHN renal): 2.68 µM
TGI (ACHN renal): 7.68 µM
GI50 (SF-295 CNS): 1.96 µM
TGI (SF-295 CNS): 3.79 µM
GI50 (U251 CNS): 2.88 µM
TGI (U251 CNS): 14.3 µM
GI50 (MDA-MB-231 breast): 1.8 µM
TGI (MDA-MB-231 breast): 3.4 µM
GI50 (SF-539 CNS): 1.99 µM
TGI (SF-539 CNS): 3.97 µM
GI50 (BT-549 breast): 15.5 µM
TGI (BT-549 breast): 58.6 µM
GI50 (SNB-19 CNS): 3.33 µM
TGI (SNB-19 CNS): > 100 µM
